The conditions of series [1]: in water; cited from earlier work.
For series [2], the system named is db/db mice. As to the kind of experiment: In vivo assay in db/db mice (blood glucose, body weight, food consumption).
Setting [3] is: high dose (300 nmoles/kg) s.c., Days 2 and 3.

Results on eleven compounds are retold here after patent US20250313604A1, “PEPTIDE PHARMACEUTICALS FOR INSULIN RESISTANCE” (Mederis Diabetes LLC, priority 2014, published 2025).

With `CCCCCCCCCCCCCCO[C@@H]1O[C@H](CO)[C@@H](O[C@@H]2O[C@@H](CO)[C@H](O)[C@@H](O)[C@@H]2O)[C@H](O)[C@H]1O` (stereo in doubt) [Tetradecyl maltoside], the CMC in series [1] is given as 0.01 mM.
Regarding `CCCCCCCCCCCCCO[C@@H]1O[C@H](CO)[C@@H](OC2OC(CO)C(O)C(O)C2O)[C@H](O)[C@H]1O` (stereo in doubt) [Tridecyl maltoside], the CMC in series [1] was 0.03 mM.
Turning to `CCCCCCCCCCO[C@@H]1O[C@H](CO)[C@@H](O[C@H]2O[C@H](CO)[C@@H](O)[C@H](O)[C@H]2O)[C@H](O)[C@H]1O` [Decyl maltoside], the CMC in series [1] was 1.8 mM.
As for `CCCCCCCCCCCCO[C@@H]1O[C@H](CO)[C@@H](O[C@H]2O[C@H](CO)[C@@H](O)[C@H](O)[C@H]2O)[C@H](O)[C@H]1O` [Dodecyl-β-D-maltoside], the CMC in series [1] is 0.17 mM.
Consider `CCCCCCCCO[C@@H]1O[C@H](C(=O)NCCCC[C@H](NC(=O)[C@@H](NC(=O)[C@H](Cc2ccccc2)NC(=O)[C@H](CCC(=O)O)NC(=O)[C@@H]2CCCCNC(=O)CC[C@H](NC(=O)[C@H](CC(=O)O)NC(=O)[C@H](CC(C)C)NC(=O)[C@H](Cc3ccc(O)cc3)NC(=O)[C@H](CCCCN)NC(=O)[C@H](CO)NC(=O)[C@H](Cc3ccc(O)cc3)NC(=O)[C@H](CC(=O)O)NC(=O)[C@H](CO)NC(=O)[C@@H](NC(=O)[C@H](Cc3ccccc3)NC(=O)[C@@H](NC(=O)CNC(=O)[C@H](CCC(N)=O)NC(=O)C(C)(C)NC(=O)[C@@H](N)Cc3c[nH]cn3)[C@@H](C)O)[C@@H](C)O)C(=O)N[C@@H](CCC(N)=O)C(=O)N[C@@H](C)C(=O)N[C@@H](C)C(=O)N2)[C@@H](C)CC)C(=O)N[C@@H](Cc2c[nH]c3ccccc23)C(=O)N[C@@H](CC(C)C)C(=O)N[C@@H](CC(C)C)C(=O)N[C@@H](CCC(N)=O)C(=O)N[C@H](C(N)=O)[C@@H](C)O)[C@@H](O)[C@H](O)[C@H]1O` [EU-A992], for which the “db/db mice - Mean Blood Glucose” value is 405 mg/dL in series [2] (250 nmole/kg s.c., 0 hr); 104 mg/dL in series [2] (250 nmole/kg s.c., 10 hr); 112 mg/dL in series [2] (250 nmole/kg s.c., 24 hr); 130 mg/dL in series [2] (250 nmole/kg s.c., 48 hr).
In the case of `CCCCCCCCCCCCCCO[C@@H]1O[C@H](C(=O)NCCCC[C@H](NC(=O)[C@@H](NC(=O)[C@H](Cc2ccccc2)NC(=O)[C@H](CCC(=O)O)NC(=O)[C@@H]2CCCCNC(=O)CC[C@H](NC(=O)[C@H](CC(=O)O)NC(=O)[C@H](CC(C)C)NC(=O)[C@H](Cc3ccc(O)cc3)NC(=O)[C@H](CCCCN)NC(=O)[C@H](CO)NC(=O)[C@H](Cc3ccc(O)cc3)NC(=O)[C@H](CC(=O)O)NC(=O)[C@H](CO)NC(=O)[C@@H](NC(=O)[C@H](Cc3ccccc3)NC(=O)[C@@H](NC(=O)CNC(=O)[C@H](CCC(N)=O)NC(=O)C(C)(C)NC(=O)[C@@H](N)Cc3c[nH]cn3)[C@@H](C)O)[C@@H](C)O)C(=O)N[C@@H](CCC(N)=O)C(=O)N[C@@H](C)C(=O)N[C@@H](C)C(=O)N2)[C@@H](C)CC)C(=O)N[C@@H](Cc2c[nH]c3ccccc23)C(=O)N[C@@H](CC(C)C)C(=O)N[C@@H](CC(C)C)C(=O)N[C@@H](CCC(N)=O)C(=O)N[C@H](C(N)=O)[C@@H](C)O)[C@@H](O)[C@H](O)[C@H]1O` [EU-A994, His1-Aib2-Gln3-Gly4-Thr5-Phe6-Thr7-Ser8-Asp9-Tyr10-Ser11-Lys12-Tyr13-Leu14-Asp15-Glu*16-Gln17-Ala18-Ala19-Lys*20-Glu21-Phe22-Ile23-Lys(N-omega(1-tetradecylbeta-D-glucuronyl))24-Trp25-Leu26-Leu27-Gln28-Thr29-NH2], the “db/db mice - Mean Blood Glucose” value in series [2] (300 nmole/kg s.c., 0 hr) amounted to 554 mg/dL; in series [2] (300 nmole/kg s.c., 10 hr) it was 242 mg/dL; in series [2] (300 nmole/kg s.c., 24 hr) it was 209 mg/dL; in series [2] (300 nmole/kg s.c., 48 hr) it was 385 mg/dL. In addition, the “body weight changes against vehicle” value in series [2] (setting [3]) is “Significant body weight changes”.
Take `CCCCCCCCCCCCCCCCCCO[C@@H]1O[C@H](CO[C@H]2O[C@H](C(=O)NCCCC[C@H](NC(=O)[C@@H](NC(=O)[C@H](Cc3ccccc3)NC(=O)[C@H](CCC(=O)O)NC(=O)[C@@H]3CCCCNC(=O)CC[C@H](NC(=O)[C@H](CC(=O)O)NC(=O)[C@H](CC(C)C)NC(=O)[C@H](Cc4ccc(O)cc4)NC(=O)[C@H](CCCCN)NC(=O)[C@H](CO)NC(=O)[C@H](Cc4ccc(O)cc4)NC(=O)[C@H](CC(=O)O)NC(=O)[C@H](CO)NC(=O)[C@@H](NC(=O)[C@H](Cc4ccccc4)NC(=O)[C@@H](NC(=O)CNC(=O)[C@H](CCC(N)=O)NC(=O)C(C)(C)NC(=O)[C@@H](N)Cc4c[nH]cn4)[C@@H](C)O)[C@@H](C)O)C(=O)N[C@@H](CCC(N)=O)C(=O)N[C@@H](C)C(=O)N[C@@H](C)C(=O)N3)[C@@H](C)CC)C(=O)N[C@@H](Cc3c[nH]c4ccccc34)C(=O)N[C@@H](CC(C)C)C(=O)N[C@@H](CC(C)C)C(=O)N[C@@H](CCC(N)=O)C(=O)N[C@H](C(N)=O)[C@@H](C)O)[C@H](O)[C@H](O)[C@H]2O)[C@@H](O)[C@H](O)[C@H]1O` [EU-A1026, His1-Aib2-Gln3-Gly4-Thr5-Phe6-Thr7-Ser8-Asp9-Tyr10-Ser11-Lys12-Tyr13-Leu14-Asp15-Glu*16-Gln17 Ala18-Ala19-Lys*20-Glu21-Phe22-Ile23-Lys (N-omega (1-octadecyl beta-D-melibiouronyl)) 24-Trp25-Leu26-Leu27-Gln28-Thr29-NH2]: the “db/db mice - Mean Blood Glucose” value in series [2] (300 nmole/kg s.c., 0 hr) was found to be 531 mg/dL; in series [2] (300 nmole/kg s.c., 10 hr), 399 mg/dL; in series [2] (300 nmole/kg s.c., 24 hr), 438 mg/dL; in series [2] (300 nmole/kg s.c., 48 hr), 505 mg/dL. Moreover, the “body weight changes against vehicle” value in series [2] (setting [3]) was “Significant body weight changes”; in series [2] (low dose (100 nmoles/kg) s.c., Days 3 and 4), “Significant body weight changes”. In series [2] (low dose (100 nmoles/kg) s.c., 10 hours), the “glucose levels versus liraglutide” value is “significantly different from liraglutide”.
Take `CCCCCCCCCCO[C@@H]1O[C@H](C(=O)NCCCC[C@H](NC(=O)[C@@H](NC(=O)[C@H](Cc2ccccc2)NC(=O)[C@H](CCC(=O)O)NC(=O)[C@@H]2CCCCNC(=O)CC[C@H](NC(=O)[C@H](CC(=O)O)NC(=O)[C@H](CC(C)C)NC(=O)[C@H](Cc3ccc(O)cc3)NC(=O)[C@H](CCCCN)NC(=O)[C@H](CO)NC(=O)[C@H](Cc3ccc(O)cc3)NC(=O)[C@H](CC(=O)O)NC(=O)[C@H](CO)NC(=O)[C@@H](NC(=O)[C@H](Cc3ccccc3)NC(=O)[C@@H](NC(=O)CNC(=O)[C@H](CCC(N)=O)NC(=O)C(C)(C)NC(=O)[C@@H](N)Cc3c[nH]cn3)[C@@H](C)O)[C@@H](C)O)C(=O)N[C@@H](CCC(N)=O)C(=O)N[C@@H](C)C(=O)N[C@@H](C)C(=O)N2)[C@@H](C)CC)C(=O)N[C@@H](Cc2c[nH]c3ccccc23)C(=O)N[C@@H](CC(C)C)C(=O)N[C@@H](CC(C)C)C(=O)N[C@@H](CCC(N)=O)C(=O)N[C@H](C(N)=O)[C@@H](C)O)[C@@H](O)[C@H](O)[C@H]1O` [EU-A1167]: the “db/db mice - Mean Blood Glucose” value worked out at 379 mg/dL in series [2] (250 nmole/kg s.c., 0 hr); 171 mg/dL in series [2] (250 nmole/kg s.c., 10 hr); 117 mg/dL in series [2] (250 nmole/kg s.c., 24 hr); 113 mg/dL in series [2] (250 nmole/kg s.c., 48 hr).
The like results for `CCCCCCCCCCCO[C@@H]1O[C@H](C(=O)NCCCC[C@H](NC(=O)[C@@H](NC(=O)[C@H](Cc2ccccc2)NC(=O)[C@H](CCC(=O)O)NC(=O)[C@@H]2CCCCNC(=O)CC[C@H](NC(=O)[C@H](CC(=O)O)NC(=O)[C@H](CC(C)C)NC(=O)[C@H](Cc3ccc(O)cc3)NC(=O)[C@H](CCCCN)NC(=O)[C@H](CO)NC(=O)[C@H](Cc3ccc(O)cc3)NC(=O)[C@H](CC(=O)O)NC(=O)[C@H](CO)NC(=O)[C@@H](NC(=O)[C@H](Cc3ccccc3)NC(=O)[C@@H](NC(=O)CNC(=O)[C@H](CCC(N)=O)NC(=O)C(C)(C)NC(=O)[C@@H](N)Cc3c[nH]cn3)[C@@H](C)O)[C@@H](C)O)C(=O)N[C@@H](CCC(N)=O)C(=O)N[C@@H](C)C(=O)N[C@@H](C)C(=O)N2)[C@@H](C)CC)C(=O)N[C@@H](Cc2c[nH]c3ccccc23)C(=O)N[C@@H](CC(C)C)C(=O)N[C@@H](CC(C)C)C(=O)N[C@@H](CCC(N)=O)C(=O)N[C@H](C(N)=O)[C@@H](C)O)[C@@H](O)[C@H](O)[C@H]1O` [EU-A1168] were, in that order, 380 mg/dL, 133 mg/dL, 169 mg/dL and 164 mg/dL.
Regarding `CCCCCCCCO[C@@H]1O[C@H](CO)[C@@H](O[C@H]2O[C@H](CO)[C@@H](O)[C@H](O)[C@H]2O)[C@H](O)[C@H]1O` [Octyl maltoside], the CMC in series [1] is listed as 19.5 mM.
Regarding Sucrose dodecanoate, the CMC in series [1] was 0.3 mM.
